Reference: EP1060162B1, “URETHANES DERIVED FROM AZACYCLOALKANES, THIO AND DITHIO ANALOGUES, PRODUCTION AND USE THEREOF AS 2,3 EPOXYSQUALENE LANESTEROL CYCLASE INHIBITORS” (Boehringer Ingelheim Pharma KG, priority 1997, dated 1999)
Where a name gives a salt, the structure may show the parent alone. Read-outs that look alike come from different tables or passages of the source.

Tests used:
[1] = molecular target: T1, ^14C-Acetat-Einbau in die mit Digitonin fällbaren Steroide (Homo sapiens, UniProt P48449); experiment: Inhibition of 14C-acetate incorporation into digitonin-precipitable steroids; assay type: cell-based; conditions: read-out: Prozentwerte, um die die Verbindungen den ^14C-Acetat-Einbau hemmen
T1 sequence (P48449 2-732): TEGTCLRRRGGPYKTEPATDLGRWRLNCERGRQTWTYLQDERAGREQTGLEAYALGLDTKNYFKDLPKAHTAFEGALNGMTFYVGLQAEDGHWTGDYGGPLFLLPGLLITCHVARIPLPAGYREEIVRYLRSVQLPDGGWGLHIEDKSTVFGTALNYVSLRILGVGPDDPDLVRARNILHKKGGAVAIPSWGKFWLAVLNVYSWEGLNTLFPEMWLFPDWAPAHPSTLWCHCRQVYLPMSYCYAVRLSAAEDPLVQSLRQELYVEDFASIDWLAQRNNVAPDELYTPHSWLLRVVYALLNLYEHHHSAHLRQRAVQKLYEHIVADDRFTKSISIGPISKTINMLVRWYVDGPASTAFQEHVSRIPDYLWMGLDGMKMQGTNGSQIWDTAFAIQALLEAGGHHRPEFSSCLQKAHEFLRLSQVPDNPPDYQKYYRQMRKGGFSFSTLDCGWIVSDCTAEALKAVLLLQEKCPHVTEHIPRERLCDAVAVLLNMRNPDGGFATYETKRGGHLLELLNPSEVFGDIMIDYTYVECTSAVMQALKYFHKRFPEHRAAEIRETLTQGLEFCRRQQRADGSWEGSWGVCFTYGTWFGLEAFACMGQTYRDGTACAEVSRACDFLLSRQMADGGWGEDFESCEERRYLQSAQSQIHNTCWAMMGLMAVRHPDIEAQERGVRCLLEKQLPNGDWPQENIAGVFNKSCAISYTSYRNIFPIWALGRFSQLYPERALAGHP
Description: I. Messung der Hemmung des ^14C-Acetat-Einbaus in die mit Digitonin fällbaren Steroide:
Die Untersuchung der Hemmwirkung wurde nach der in J. Lipid. Res. 37, 148-157 [1996] beschriebenen Methode bei Testkonzentrationen von 10^-8 und 10^-9 Mol/l durchgeführt.
Die Prozentwerte, um die obigen Verbindungen den ^14C-Acetat-Einbau hemmen, sind in Tabelle 1 angegeben.

[2] = system: 2,3-Epoxisqualen-Lanosterol-Cyclase; experiment: In-vivo effect in the rat after oral administration: 2,3-epoxysqualene level in the liver; set-up: species or system Ratte
Procedure: II. Messung der in-vivo Wirkung an der Ratte nach oraler Gabe
Die Inhibierung des Enzyms 2,3-Epoxisqualen-Lanosterol-Cyclase bewirkt eine Erhöhung der 2,3-Epoxisqualenspiegel in Leber und Plasma. Die Menge an gebildetem 2,3-Epoxisqualen dient daher als direktes Maß für die Wirkstärke am Ganztier.Die Bestimmung wurde nach der in J. Lipid. Res. 38, 564-575, [1997] beschriebenen Methode nach t = 3 bzw. 8 Stunden nach Substanzgabe mit Konzentrationen von c = 0.01, 0.03, 0.1, 0.3 und 1.0 mg/kg durchgeführt. In der folgenden Tabelle 3 sind beispielhaft die Ergebnisse für die vorstehend erwähnten Substanzen A, B, C, D, E, G, H, I und K angegeben.

Asp. niger ATCC 16404 = experiment: Fungistatic effect, serial dilution test (microtitre system); assay type: cell-based; conditions: Aspergillus niger
Procedure: (§1) IV. Bestimmung der fungistatischen Wirkung
(§2) Die fungistatische Wirkung wurde über den Reihenverdünnungstest (Mikrotitersystem) bestimmt. Als Nährmedium diente Sabouraud-Bouillon. Das Inoculum betrug ca. 10^4 bis 10^5 KBE/ml (KBE = koloniebildende Einheiten); die Bebrütungszeit betrug 2 bis 4 Tage bei 26°C.
(§3) Es wurde die niedrigste Konzentration, die sichtbares Wachstum nicht mehr zuließ (minimale Hemmkonzentration MHK), bestimmt.
(§4) Geprüft wurden die vorstehend erwähnten Verbindungen A, B, D, E, F, H, I, K, L und M. Die Ergebnisse sind in der folgenden Tabelle 5 zusammengefaßt. Die MHK ist in µg/ml angegeben.

[3] = system: Sacch. carlsbergensis ATCC 9080; experiment: as above; assay type: cell-based; conditions: Saccharomyces pastorianus
Procedure: as §1, §2, §3, §4

[4] = system: Trich. mentagrophytes ATCC 9129; experiment: as above; assay type: cell-based; conditions: Trichophyton mentagrophytes
Procedure: as §1, §2, §3, §4

[5] = system: Cand. albicans ATCC 10231; experiment: as above; assay type: cell-based; conditions: Candida albicans
Procedure: as §1, §2, §3, §4

Pen.notatum CBS 19746 = experiment: as above; assay type: cell-based; conditions: Penicillium chrysogenum
Procedure: as §1, §2, §3, §4

Rhod. rubra 49 = experiment: as above; assay type: cell-based; conditions: read-out: MHK
Procedure: as §1, §2, §3, §4

[6] = Lipid lowering in the normolipaemic golden hamster; assay type: in vivo, Goldhamster; conditions: Dosis 57.5 mg/kg/Tag; compared with control group fed without test substance
Description: III. Lipidsenkung am normolipämischen Goldhamster.
Diese Bestimmung wurde nach der in J. Lipid. Res. 38, 564-575, (1997) beschriebenen Methode durchgeführt. Am Ende des Versuchs wurde Gesamtcholesterol, β-Lipoprotein-Cholesterol sowie HDL-Cholesterol bestimmt und mit den Werten einer ohne Testsubstanz gefütterten Kontrollgruppe verglichen.

[7] = ATCC16404, Asp., Sabouraud-Bouillon, 2 bis 4 Tage bei 26°C, read-out: MHK
[8] = ATCC9080, Sacc., Sabouraud-Bouillon, 2 bis 4 Tage bei 26°C, read-out: MHK
[9] = ATCC9129, Trich., Sabouraud-Bouillon, 2 bis 4 Tage bei 26°C, read-out: MHK
[10] = ATCC10231, Cand., Sabouraud-Bouillon, 2 bis 4 Tage bei 26°C, read-out: MHK
[11] = CBS19746, Pen., Sabouraud-Bouillon, 2 bis 4 Tage bei 26°C, read-out: MHK
[12] = Rhod., Sabouraud-Bouillon, 2 bis 4 Tage bei 26°C

Row | SMILES | inhibition at 0.01 µM ([1]; Testkonzentration 10^-8 Mol/l) [%] | inhibition at 0.001 µM ([1]; Testkonzentration 10^-9 Mol/l) [%] | 2,3-Epoxysqualen-Konzentration in der Leber (Ratte) ([2]; c = 1.0 mg/kg, t = 3 h) [µg/g] | 2,3-Epoxysqualen-Konzentration in der Leber (Ratte) ([2]; c = 1.0 mg/kg, t = 8 h) [µg/g] | MIC (Asp. niger ATCC 16404; [7]) [µg/mL] | MIC [3, 8] [µg/mL] | MIC [4, 9] [µg/mL] | MIC [5, 10] [µg/mL] | MIC (Pen.notatum CBS 19746; [11]) [µg/mL] | MIC (Rhod. rubra 49; [12]) [µg/mL] | 2,3-Epoxysqualen-Konzentration in der Leber (Ratte) ([2]; c = 0.1 mg/kg, t = 3 h) [µg/g] | 2,3-Epoxysqualen-Konzentration in der Leber (Ratte) ([2]; c = 0.1 mg/kg, t = 8 h) [µg/g] | also measured
1 | CN(C)Cc1ccc(C(=O)C2CCN(C(=S)SCc3ccccc3)CC2)cc1.Cl [B, N-(Benzylthio) thiocarbonyl-4-[4-(dimethylaminomethyl)benzoyl]piperidin-hydrochlorid] | 85 | 47 | 39.2 | 42.0 | 32 | 32 | 2 | 64 | 8 | 16 |  |  | 2,3-Epoxysqualen-Konzentration in der Leber (Ratte) ([2]; c = 0.3 mg/kg, t = 3 h): 4.5 µg/g; 2,3-Epoxysqualen-Konzentration in der Leber (Ratte) ([2]; c = 0.3 mg/kg, t = 8 h): 5.8 µg/g
2 | CN(C)Cc1ccc(SC2CCN(C(=O)OCc3ccccc3)CC2)cc1.Cl [C, N-Benzyloxycarbonyl-4-[4-(dimethylaminomethyl)phenylthio]-piperidin-hydrochlorid] | 78 | 57 | 3.8 | 2.0 |  |  |  |  |  |  | 0.5 | 1.3 | 2,3-Epoxysqualen-Konzentration in der Leber (Ratte) ([2]; c = 0.01 mg/kg, t = 3 h): 0.6 µg/g; 2,3-Epoxysqualen-Konzentration in der Leber (Ratte) ([2]; c = 0.01 mg/kg, t = 8 h): 3.0 µg/g; 2,3-Epoxysqualen-Konzentration in der Leber (Ratte) ([2]; c = 0.3 mg/kg, t = 3 h): 0.5 µg/g; 2,3-Epoxysqualen-Konzentration in der Leber (Ratte) ([2]; c = 0.3 mg/kg, t = 8 h): 1.8 µg/g
3 | CN(C)Cc1ccc(SC2CCN(C(=O)Oc3ccc(Cl)cc3)CC2)cc1 [D, N-(4-Chlorphenoxy)carbonyl-4-[4-(dimethylaminomethyl)-phenylthio]piperidin-hydrochlorid] |  |  |  |  |  |  |  |  |  |  | 1.4 | 1.8 | inhibition at 0.001 µM [1]: 55%; inhibition at 0.01 µM [1]: 86%; 2,3-Epoxysqualen-Konzentration in der Leber (Ratte) ([2]; c = 0.01 mg/kg, t = 3 h): 1.3 µg/g; 2,3-Epoxysqualen-Konzentration in der Leber (Ratte) ([2]; c = 0.01 mg/kg, t = 8 h): 1.0 µg/g; MIC (Asp. niger ATCC 16404; ATCC16404, read-out: MHK): 256 µg/mL; MIC ([3]; ATCC9080, read-out: MHK): 128 µg/mL; MIC ([4]; ATCC9129, read-out: MHK): 16 µg/mL; MIC ([5]; ATCC10231, read-out: MHK): 64 µg/mL; MIC (Pen.notatum CBS 19746; CBS19746, read-out: MHK): 128 µg/mL; MIC (Rhod. rubra 49): 64 µg/mL
4 | CN(C)Cc1ccc(CC2CCN(C(=S)SCc3ccccc3)CC2)cc1.Cl [E, N-(Benzylthio)thiocarbonyl-4-[4-(dimethylaminomethyl)-benzyl]piperidin-hydrochlorid] | 87 | 47 |  |  | 8 | 16 | 1 | 16 | 1 | 4 | 5.6 | 4.4 | 2,3-Epoxysqualen-Konzentration in der Leber (Ratte) ([2]; c = 0.01 mg/kg, t = 3 h): 0.9 µg/g; 2,3-Epoxysqualen-Konzentration in der Leber (Ratte) ([2]; c = 0.01 mg/kg, t = 8 h): 1.0 µg/g
5 | CN(C)Cc1ccc(C=C2CCN(C(=S)SCc3ccccc3)CC2)cc1.Cl [F, N-(Benzylthio)thiocarbonyl-4-[4-(dimethylaminomethyl)-benzyliden]piperidin-hydrochlorid] | 84 | 45 |  |  | 8 | 16 | 2 | 16 | 4 | 4 |  |  | 
6 | CN(C)Cc1ccc(CC2CCN(C(=S)Oc3ccc(Cl)cc3)CC2)cc1 [G, N-(4-Chlorphenoxy)thiocarbonyl-4-[4-(dimethylaminomethyl)-benzyl]piperidin-hydrochlorid] | 83 | 56 | 87.4 | 134.2 |  |  |  |  |  |  | 10.3 | 11.5 | 
7 | Cc1ccc(OC(=S)N2CCC(Cc3ccc(CN(C)C)cc3)CC2)cc1.Cl [L, 4-[4-(Dimethylaminomethyl)benzyl] -N-(4-methylphenoxy) - thiocarbonylpiperidin-hydrochlorid] | 88 | 64 |  |  | 64 | 64 | 1 | 32 | 32 | 8 |  |  | 
8 | CN(C)Cc1ccc(CC2CCN(C(=O)Oc3ccc(F)cc3)CC2)cc1 [M, 4-[4-(Dimethylaminomethyl)benzyl]-N-(4-fluorphenoxy)-carbonylpiperidin-hydrochlorid] |  |  |  |  |  |  |  |  |  |  |  |  | inhibition at 0.001 µM [1]: 59%; inhibition at 0.01 µM [1]: 84%; MIC (Asp. niger ATCC 16404; ATCC16404, read-out: MHK): 64 µg/mL; MIC ([3]; ATCC9080, read-out: MHK): 512 µg/mL; MIC ([4]; ATCC9129, read-out: MHK): 2 µg/mL; MIC ([5]; ATCC10231, read-out: MHK): 128 µg/mL; MIC (Pen.notatum CBS 19746; CBS19746, read-out: MHK): 512 µg/mL; MIC (Rhod. rubra 49): 32 µg/mL; Gesamtcholesterol [6]: -26.8%; HDL-Cholesterol [6]: -20.4%; β-Lipoprotein-Cholesterol [6]: -31.6%
9 | CN(C)Cc1ccc([C@H]2CC[C@H](N(C)C(=O)c3ccc(Cl)cc3)CC2)cc1 [V, reference compound] | 59 | 23 |  |  |  |  |  |  |  |  |  |  | 
10 | CN(C)Cc1ccc(SC2CCN(C(=S)SCc3ccccc3)CC2)cc1.Cl [Verbindung A, N-(Benzylthio)thiocarbonyl-4-[4-(dimethylaminomethyl)-phenylthio]piperidin-hydrochlorid] | 85 | 53 | 9.3 | 9.8 | 8 | 8 | 1 | 16 | 4 | 16 |  |  | 2,3-Epoxysqualen-Konzentration in der Leber (Ratte) ([2]; c = 0.3 mg/kg, t = 3 h): 2.0 µg/g; 2,3-Epoxysqualen-Konzentration in der Leber (Ratte) ([2]; c = 0.3 mg/kg, t = 8 h): 1.2 µg/g
11 | Cc1ccc(CC(=O)O[C@H]2CC[C@H](c3ccc(CN(C)C)cc3)CC2)cc1 [W, trans-O-(p-Tolylacetyl)-4-(4-dimethylaminomethylphenyl)-cyclohexanol, reference compound] | 72 | 21 |  |  |  |  |  |  |  |  |  |  | 
